Data set [1] relates to Nucleic Acid. Nature of the data set: Displacement of ethidium bromide from human pre-hsa-mir-155 miRNA after 30 mins. The format is nucleic-acid assay.
The nature of data set [2]: Aqueous solubility of the compound. The class given is physicochemical. Conditions: buffer.
Data set [3] concerns Nucleic Acid. Nature of the data set: Binding affinity to human pre-hsa-mir-155 miRNA assessed as inhibition of dicer-catalysed (33P)-labelled pre-miRNA processing at 1 mM after 1 hr by PAGE analysis. The format is nucleic-acid assay. The conditions noted are these: for residual activity: values are per cent of control.
For data set [4], the target named is Nucleic Acid. Put plainly: Binding affinity to human pre-hsa-mir-155 miRNA assessed as increase in fluorescence after 30 mins by fluorimetry. The format is nucleic-acid assay.
Data set [5] concerns Nucleic Acid. Put plainly: Binding affinity to human pre-hsa-mir-155 miRNA assessed as increase in melting temperature. The class given is nucleic-acid assay.
Data set [6] concerns Nucleic Acid. Put plainly: Binding affinity to human pre-hsa-mir-155 miRNA assessed as melting temperature at 10 uM (reference value: 48 degC). The class given is nucleic-acid assay.
The subject of data set [7] is Nucleic Acid. Put plainly: Binding affinity to human pre-hsa-mir-155 miRNA assessed as melting temperature at 2 uM (reference value: 48 degC). The format is nucleic-acid assay.
The test system of data set [8] is Nucleic Acid. Nature of the data set: Binding affinity to human pre-hsa-mir-155 miRNA assessed as melting temperature at 12 uM (reference value: 48 degC). The format is nucleic-acid assay.
In data set [9] the test system is Nucleic Acid. Nature of the data set: Binding affinity to human pre-hsa-mir-155 miRNA assessed as melting temperature at 112 uM (reference value: 48 degC). The class given is nucleic-acid assay.

By residual activity is commonly meant the signal under treatment as a percentage of the control signal. As a reminder, the pKd is the negative decadic logarithm of the Kd, by convention in mol/L.

pKd: −log10 of the molar value. Active and inactive are the calls of the source. The calls are words filed in the database; no cut-off is given here. *1 amine or outer side, *2 acyl side, *3 side chain or, on linkers, in order; H or OH if unused. Where a SMILES comes first, the peptide text is derived from it. Bridges are numbered along the chain shown (N, C = ends). Roman numbers before positions name the chains, in order. [ ]: non-standard residue; d: D form. Actinocin(9to1) = Cc1c2oc3c(C)ccc(C(=O)[*:1])c3nc-2c(C(=O)[*:2])c(N)c1=O; NMeV = CN[C@H](C(=O)O)C(C)C; Sar = CNCC(=O)O

Consider `CCO.C[C@H]1c2cccc(O)c2C(=O)C2=C(O)[C@]3(O)C(=O)C(C(N)=O)=C(O)[C@@H](N(C)C)[C@@H]3[C@@H](O)[C@@H]21.Cl.O`, for which the result with Nucleic Acid [1] was inactive. Further, the solubility entry in data set [2] is recorded as “soluble”. As to `CN1CCN(c2ccc3[nH]c(-c4ccc5[nH]c(-c6ccc(O)cc6)nc5c4)nc3c2)CC1`, the residual activity in the data set with Nucleic Acid [3] came to 40%. Further, on Nucleic Acid [4], the pKd is 4.85. As for `Cc1c2c(c(O)c3c(O)cccc13)C(=O)[C@]1(O)C(=O)C(C(N)=O)=C(O)[C@H](N(C)C)[C@@H]1C2.Cl`, the outcome with Nucleic Acid [1] was inactive. Moreover, the solubility entry in data set [2] is reported as “soluble”. For `Cc1c2c(c(O)c3c(O)ccc(Cl)c13)C(=O)[C@]1(O)C(=O)C(C(N)=O)=C(O)[C@H](N(C)C)[C@@H]1C2.Cl`, the outcome in the data set on Nucleic Acid [1] was inactive. Besides, the solubility result in [2] is “soluble”.

For the compound `CCN(CC)CCCC(C)Nc1c2ccc(Cl)cc2nc2ccc(OC)cc12` (stereo unspecified), the inhibition entry in the data set on Nucleic Acid [3] was “inactive”. As to `CN(C)[C@@H]1C(O)=C(C(N)=O)C(=O)[C@@]2(O)C(O)=C3C(=O)c4c(O)cccc4[C@@](C)(O)[C@H]3C[C@@H]12`, in the data set with Nucleic Acid [1], the result was inactive. As to `CN(C)[C@H]1C(O)=C(C(N)=O)C(=O)[C@@]2(O)C(O)=C3C(=O)c4c(O)ccc(Cl)c4[C@@](C)(O)[C@H]3C[C@@H]12`, the result with Nucleic Acid [1] was inactive.

For the compound `CN(C)[C@H]1C(O)=C(C(N)=O)C(=O)[C@@]2(O)C(O)=C3C(=O)c4c(O)cccc4[C@@](C)(O)[C@H]3C[C@@H]12`, the result with Nucleic Acid [1] was inactive.

As for `CN(C)c1ccc(O)c2c1C[C@H]1C[C@H]3[C@H](N(C)C)C(O)=C(C(N)=O)C(=O)[C@@]3(O)C(O)=C1C2=O`, the result in the data set with Nucleic Acid [1] was inactive. Consider `CN[C@@H]1[C@@H](O[C@H]2O[C@H](CO)[C@@H](N)[C@H](O)[C@H]2O)OC2C[C@@H](N)[C@@H](O[C@H]3[C@H](O)[C@@H](O)[C@H](N)C[C@@H]3N)OC2[C@@H]1O` (stereo partly specified), for which the residual activity in the data set on Nucleic Acid [3] stood at 10%. On to `CN[C@H](CC(C)C)C(=O)N[C@H]1C(=O)N[C@@H](CC(N)=O)C(=O)N[C@H]2C(=O)N[C@H]3C(=O)N[C@H](C(=O)N[C@H](C(=O)O)c4cc(O)cc(O)c4-c4cc3ccc4O)[C@H](O)c3ccc(c(Cl)c3)Oc3cc2cc(c3O[C@@H]2O[C@H](CO)[C@@H](O)[C@H](O)[C@H]2O[C@H]2C[C@](C)(N)[C@H](O)[C@H](C)O2)Oc2ccc(cc2Cl)[C@H]1O`, for which the inhibition result in the data set on Nucleic Acid [3] is “inactive”. As to `COc1ccc2cc3[n+](cc2c1OC)CCc1cc2c(cc1-3)OCO2`, the inhibition entry in the data set on Nucleic Acid [3] was “inactive”.

In the case of `COc1cccc2c1C(=O)c1c(O)c3c(c(O)c1C2=O)C[C@@](O)(C(=O)CO)C[C@@H]3O[C@H]1C[C@H](N)[C@H](O)[C@H](C)O1`, in the data set on Nucleic Acid [3], the residual activity was 83%. On to `COc1cccc2c1C(=O)c1c(O)c3c(c(O)c1C2=O)C[C@@](O)(C(C)=O)C[C@@H]3O[C@H]1C[C@H](N)[C@H](O)[C@H](C)O1`, for which, in the data set on Nucleic Acid [3], the residual activity was found to be 19%. Turning to `N=C(N)c1ccc(-c2cc3ccc(C(=N)N)cc3[nH]2)cc1`, the residual activity with Nucleic Acid [3] was 100%. As for `Nc1ccc2cc3ccc(N)cc3nc2c1`, the residual activity in the data set on Nucleic Acid [3] was determined as 93%.

Consider `Cc1c2oc3c(C)ccc(C(=O)N[C@@H]4C(=O)N[C@H](C(C)C)C(=O)N5CCC[C@H]5C(=O)N(C)CC(=O)N(C)[C@@H](C(C)C)C(=O)O[C@@H]4C)c3nc-2c(C(=O)N[C@@H]2C(=O)N[C@H](C(C)C)C(=O)N3CCC[C@H]3C(=O)N(C)CC(=O)N(C)[C@@H](C(C)C)C(=O)O[C@@H]2C)c(N)c1=O` (I: T[dV]P[Sar][NMeV] / II: T[dV]P[Sar][NMeV]; ester I:1-I:C, II:1-II:C; linker I:N-II:N via Actinocin(9to1)), for which, in the data set with Nucleic Acid [3], the inhibition result was “inactive”.

Take `NC[C@@H]1O[C@H](O[C@H]2[C@@H](O)[C@H](O[C@@H]3[C@@H](O)[C@H](N)C[C@H](N)[C@H]3O[C@H]3O[C@H](CN)[C@@H](O)[C@H](O)[C@H]3N)O[C@@H]2CO)[C@H](N)[C@@H](O)[C@@H]1O` (stereo in doubt; form 1): in the data set with Nucleic Acid [5], the Activity result was “Dose-dependent effect”. For the same compound, the residual activity in the data set on Nucleic Acid [3] turned out to be 10%. For the same compound, the Tm in the data set on Nucleic Acid [6] was over 70 °C; with Nucleic Acid [7], 50 °C; in the data set with Nucleic Acid [8], over 70 °C. Turning to `NC[C@@H]1O[C@H](O[C@H]2[C@@H](O)[C@H](O[C@@H]3[C@@H](O)[C@H](N)C[C@H](N)[C@H]3O[C@H]3O[C@H](CN)[C@@H](O)[C@H](O)[C@H]3N)O[C@@H]2CO)[C@H](N)[C@@H](O)[C@@H]1O` (stereo in doubt; form 1) [FRAMYCETIN], the pKd at Nucleic Acid [1] is 5.22.

Take `NC[C@@H]1O[C@H](O[C@H]2[C@@H](O)[C@H](O[C@@H]3[C@@H](O)[C@H](N)C[C@H](N)[C@H]3O[C@H]3O[C@H](CN)[C@@H](O)[C@H](O)[C@H]3N)O[C@@H]2CO)[C@H](N)[C@@H](O)[C@@H]1O` (stereo in doubt; form 2): in the data set on Nucleic Acid [3], the residual activity worked out at 10%. For the same compound, the Tm in the data set with Nucleic Acid [7] was 48 °C; with Nucleic Acid [8], over 70 °C.

`NC[C@@H]1O[C@H](O[C@H]2[C@@H](O)[C@H](O[C@@H]3[C@@H](O)[C@H](N)C[C@H](N)[C@H]3O[C@H]3O[C@H](CN)[C@@H](O)[C@H](O)[C@H]3N)O[C@@H]2CO)[C@H](N)[C@@H](O)[C@@H]1O` (stereo in doubt; form 2) [FRAMYCETIN] showed a pKd at Nucleic Acid [1] of 4.96.

`NCC[C@H](O)C(=O)N[C@@H]1C[C@H](N)[C@@H](O[C@H]2O[C@H](CN)[C@@H](O)[C@H](O)[C@H]2O)[C@H](O)[C@H]1O[C@H]1O[C@H](CO)[C@@H](O)[C@H](N)[C@H]1O` [AMIKACIN]: at Nucleic Acid [1], the pKd is under 4.00. Take `Cc1c2c(c(O)c3c(O)cccc13)C(=O)[C@]1(O)C(=O)C(C(N)=O)=C(O)[C@@H](N(C)C)[C@@H]1C2.Cl` [ANHYDROTETRACYCLINE HYDROCHLORIDE]: the result in the data set with Nucleic Acid [1] was inactive. For the same compound, the solubility result in data set [2] is “soluble”.

At Nucleic Acid [1], `NC[C@H]1O[C@H](O[C@H]2[C@H](O)[C@@H](O[C@H]3O[C@H](CO)[C@@H](O)[C@H](N)[C@H]3O)[C@H](N)C[C@@H]2N)[C@H](N)[C@@H](O)[C@@H]1O` [BEKANAMYCIN] gave a pKd of 5.22. On to `CN(C)[C@@H]1C(O)=C(C(N)=O)C(=O)[C@@]2(O)C(O)=C3C(=O)c4c(O)ccc(Cl)c4[C@@H](O)[C@H]3C[C@@H]12.Cl` [DEMECLOCYCLINE HYDROCHLORIDE], for which the result in the data set with Nucleic Acid [1] was inactive. In addition, the solubility result in data set [2] is recorded as “soluble”. At Nucleic Acid [1], `CN[C@@H]1[C@H](O[C@H]2[C@H](O[C@H]3[C@H](O)[C@@H](O)[C@H](NC(=N)N)[C@@H](O)[C@@H]3NC(=N)N)O[C@@H](C)[C@]2(O)CO)O[C@@H](CO)[C@H](O)[C@H]1O` [DIHYDROSTREPTOMYCIN] gave a pKd of under 4.00.

Consider `CC[n+]1c(-c2ccccc2)c2cc(N)ccc2c2ccc(N)cc21` [HOMIDIUM BROMIDE], for which the pKd at Nucleic Acid [4] was 5.30. With `NC[C@@H]1O[C@@H](O[C@H]2[C@H](O)[C@@H](O[C@H]3O[C@H](CO)[C@@H](O)[C@H](N)[C@H]3O)[C@H](N)C[C@@H]2N)[C@@H](O)[C@H](O)[C@H]1O` [KANAMYCIN A], the Activity result in the data set on Nucleic Acid [5] is “Dose-dependent effect”. Also, on Nucleic Acid [1], the pKd was 3.85. Besides, the Tm is 55 °C in the data set on Nucleic Acid [7], 64 °C in the data set with Nucleic Acid [8] and over 70 °C in the data set on Nucleic Acid [9]. On to `C=C1c2cccc(O)c2C(=O)C2=C(O)[C@]3(O)C(=O)C(C(N)=O)=C(O)[C@@H](N(C)C)[C@@H]3[C@@H](O)[C@H]12.Cl` [METHACYCLINE HYDROCHLORIDE], for which, in the data set on Nucleic Acid [1], the outcome was inactive. Also, in data set [2], the solubility result is “soluble”.

`CCN[C@@H]1C[C@H](N)[C@@H](O[C@H]2OC(CN)=CC[C@H]2N)[C@H](O)[C@H]1O[C@H]1OC[C@](C)(O)[C@H](NC)[C@H]1O` [NETILMICIN] showed a pKd at Nucleic Acid [1] of under 4.00. Consider `CN[C@@H]1[C@H](O)[C@H](NC)[C@H]2O[C@@]3(O)C(=O)C[C@@H](C)O[C@H]3O[C@@H]2[C@H]1O` [SPECTINOMYCIN], for which the pKd at Nucleic Acid [1] is under 4.00. Compound `NC[C@H]1O[C@H](O[C@H]2[C@H](O)[C@@H](O[C@H]3O[C@H](CO)[C@@H](O)[C@H](N)[C@H]3O)[C@H](N)C[C@@H]2N)[C@H](N)C[C@@H]1O` [TOBRAMYCIN] gave a pKd at Nucleic Acid [1] of under 4.00. Consider BLEOMYCIN, for which the inhibition entry with Nucleic Acid [3] was “inactive”. On Nucleic Acid [1], GENTAMICIN gave a pKd of under 4.00.

The record behind these values is ChEMBL document CHEMBL1949550, “Pre-microRNA binding aminoglycosides and antitumor drugs as inhibitors of Dicer catalyzed microRNA processing” (Bioorg Med Chem Lett, 2012).
